Tests used:
[1] = Clearance in dog at 4 mg/kg, po or 5 mg/kg, iv; format: ADME, organism-based, Canis lupus familiaris; conditions: in vivo
[2] = Bioavailability in dog at 4 mg/kg, po or 5 mg/kg, iv; format: ADME, organism-based, Canis lupus familiaris; conditions: in vivo
[3] = Half life in rat at 10 mg/kg, iv; format: ADME, organism-based; parameters: dose 10 mg/kg, route intravenous; conditions: in vivo
[4] = Half life in rhesus monkey at 2 mg/kg, iv; format: ADME, organism-based, Macaca mulatta; parameters: dose 2 mg/kg, route intravenous; conditions: in vivo
[5] = Metabolic stability in dog hepatocytes at 20 uM after 2 hrs; format: ADME, cell-based, Canis lupus familiaris, Hepatocyte; conditions: read-out: Stability
[6] = Volume of distribution at steady state in rhesus monkey at 4 mg/kg, po or 2 mg/kg, iv; format: ADME, organism-based, Macaca mulatta; conditions: in vivo, read-out: Vdss
[7] = Volume of distribution at steady state in rat at 20 mg/kg, po or 10 mg/kg, iv; format: ADME, organism-based; conditions: in vivo, read-out: Vdss
[8] = Volume of distribution at steady state in mouse at 100 mg/kg, po or 10 mg/kg, iv; format: ADME, organism-based; conditions: in vivo, read-out: Vdss
[9] = Bioavailability in mouse at 100 mg/kg, po or 10 mg/kg, iv; format: ADME, organism-based; conditions: in vivo
[10] = Half life in dog at 5 mg/kg, iv; format: ADME, organism-based, Canis lupus familiaris; parameters: dose 5 mg/kg, route intravenous; conditions: in vivo
[11] = Volume of distribution at steady state in dog at 4 mg/kg, po or 5 mg/kg, iv; format: ADME, organism-based, Canis lupus familiaris; conditions: in vivo, read-out: Vdss
[12] = Clearance in rhesus monkey at 4 mg/kg, po or 2 mg/kg, iv; format: ADME, organism-based, Macaca mulatta; conditions: in vivo
[13] = Bioavailability in rat at 20 mg/kg, po or 10 mg/kg, iv; format: ADME, organism-based; conditions: in vivo
[14] = Half life in mouse at 10 mg/kg, iv; format: ADME, organism-based; parameters: dose 10 mg/kg, route intravenous; conditions: in vivo
[15] = Clearance in mouse at 100 mg/kg, po or 10 mg/kg, iv; format: ADME, organism-based; conditions: in vivo
[16] = Metabolic stability in human hepatocytes at 20 uM after 2 hrs; format: ADME, cell-based, Hepatocyte; conditions: read-out: Stability
[17] = Bioavailability in rhesus monkey at 4 mg/kg, po or 2 mg/kg, iv; format: ADME, organism-based, Macaca mulatta; conditions: in vivo
[18] = Metabolic stability in rhesus monkey hepatocytes at 20 uM after 2 hrs; format: ADME, cell-based, Macaca mulatta, Hepatocyte; conditions: read-out: Stability
[19] = Clearance in rat at 20 mg/kg, po or 10 mg/kg, iv; format: ADME, organism-based; conditions: in vivo
[20] = Metabolic stability in rat hepatocytes at 20 uM after 2 hrs; format: ADME, cell-based, Hepatocyte; conditions: read-out: Stability

Work on `COc1cccc(OC)c1C1(C(=O)[N-]S(=O)(=O)Cc2ccc(N3Cc4c(c(OCC(F)(F)F)c5cccnc5c4OCC(F)(F)F)C3=O)c(C)c2)CC1.[Na+]` yielded a clearance [1] of 0.2 mL/min/kg, a bioavailability [2] of 69% and a half-life [3] of 14.8 h. For the same compound, the half-life [4] was 3.8 h, the remaining at 2 h, 20 µM [5] was 20% and the Vd [6] was 0.3 L/kg. It also gave a Vd [7] of 0.7 L/kg, a Vd [8] of 0.7 L/kg and a bioavailability [9] of 44%. The half-life [10] was 13.2 h, the Vd [11] was 0.2 L/kg and the clearance [12] was 2 mL/min/kg. For the same compound, the bioavailability [13] was 73%, the half-life [14] was 3.5 h and the clearance [15] was 2.6 mL/min/kg. It also gave a remaining at 2 h, 20 µM [16] of 36%, a bioavailability [17] of 40% and a remaining at 2 h, 20 µM [18] of 39%. It also gave a clearance [19] of 0.6 mL/min/kg and a remaining at 2 h, 20 µM [20] of 6%.

From ChEMBL document CHEMBL1142248, “Structure-activity relationships and pharmacokinetic parameters of quinoline acylsulfonamides as potent and selective antagonists of the EP(4) receptor” (Bioorg Med Chem Lett, 2008)
